Results published in ChEMBL document CHEMBL4507265 (2021).

How the values were obtained:
[1] = biological target: SRSF protein kinase 3 (Homo sapiens) (UniProt Q9UPE1); details: Compound concentration 1000.0 nM
[2] = biological target: Vascular endothelial growth factor receptor 3 (Homo sapiens) (UniProt P35916); details: Compound concentration 1000.0 nM
[3] = test system: ALK tyrosine kinase receptor (Homo sapiens), Q9UM73 [L1196M]; details: Compound concentration 1000.0 nM
[4] = biological target: Casein kinase I isoform alpha (Homo sapiens) (UniProt P48729); details: Compound concentration 1000.0 nM
[5] = biological target: Activated CDC42 kinase 1 (Homo sapiens) (UniProt Q07912); details: Compound concentration 1000.0 nM
[6] = biological target: Mitogen-activated protein kinase 15 (Homo sapiens) (UniProt Q8TD08); details: Compound concentration 1000.0 nM
[7] = biological target: Tyrosine-protein kinase ABL1 (Homo sapiens) (UniProt P00519); details: Compound concentration 1000.0 nM
[8] = biological target: Dual specificity protein kinase CLK4 (Homo sapiens) (UniProt Q9HAZ1); details: Compound concentration 1000.0 nM
[9] = biological target: Cyclin-dependent kinase 4 (Homo sapiens) (UniProt P11802); details: Compound concentration 1000.0 nM
[10] = biological target: Myosin light chain kinase family member 4 (Homo sapiens) (UniProt Q86YV6); details: Compound concentration 1000.0 nM
[11] = test system: Phosphatidylinositol 4,5-bisphosphate 3-kinase catalytic subunit alpha isoform (Homo sapiens), P42336 [M1043I]; details: Compound concentration 1000.0 nM
[12] = biological target: Serine/threonine-protein kinase PAK 3 (Homo sapiens) (UniProt O75914); details: Compound concentration 1000.0 nM
[13] = biological target: Tyrosine-protein kinase ABL1 (Homo sapiens) (UniProt P00519); details: Compound concentration 1000.0 nM; remark: listed apart in the source
[14] = test system: eIF-2-alpha kinase GCN2 (Homo sapiens), Q9P2K8 [S808G]; details: Compound concentration 1000.0 nM
[15] = biological target: TGF-beta receptor type-2 (Homo sapiens) (UniProt P37173); details: Compound concentration 1000.0 nM
[16] = biological target: MAP kinase-interacting serine/threonine-protein kinase 1 (Homo sapiens) (UniProt Q9BUB5); details: Compound concentration 1000.0 nM
[17] = biological target: Serine/threonine-protein kinase N2 (Homo sapiens) (UniProt Q16513); details: Compound concentration 1000.0 nM
[18] = biological target: Phosphatidylinositol 5-phosphate 4-kinase type-2 beta (Homo sapiens) (UniProt P78356); details: Compound concentration 1000.0 nM
[19] = biological target: Ephrin type-B receptor 6 (Homo sapiens) (UniProt O15197); details: Compound concentration 1000.0 nM
[20] = biological target: Mitogen-activated protein kinase kinase kinase 2 (Homo sapiens) (UniProt Q9Y2U5); details: Compound concentration 1000.0 nM
[21] = biological target: MAP kinase-activated protein kinase 2 (Homo sapiens) (UniProt P49137); details: Compound concentration 1000.0 nM
[22] = biological target: Mitogen-activated protein kinase 11 (Homo sapiens) (UniProt Q15759); details: Compound concentration 1000.0 nM
[23] = biological target: GABA-A receptor; anion channel (Rattus norvegicus) (UniProt O09028+P15431+P18506+P18508+P19969+P20236+P23574+P23576+P28471+P28473+P30191+P62813+P63079+P63138+Q91ZM7+Q9ES14); details: Compound concentration 10.0 uM
[24] = biological target: Ephrin type-A receptor 4 (Homo sapiens) (UniProt P54764); details: Compound concentration 1000.0 nM
[25] = biological target: Serine/threonine-protein kinase PknB (Mycobacterium tuberculosis) (UniProt P9WI81); details: Compound concentration 1000.0 nM
[26] = biological target: Dual specificity mitogen-activated protein kinase kinase 3 (Homo sapiens) (UniProt P46734); details: Compound concentration 1000.0 nM
[27] = test system: Mast/stem cell growth factor receptor Kit (Homo sapiens), P10721 [V559D,T670I]; details: Compound concentration 1000.0 nM
[28] = biological target: D(1A) dopamine receptor (Homo sapiens) (UniProt P21728); details: Compound concentration 10.0 uM
[29] = biological target: Serine/threonine-protein kinase ICK (Homo sapiens) (UniProt Q9UPZ9); details: Compound concentration 1000.0 nM
[30] = test system: Phosphatidylinositol 4,5-bisphosphate 3-kinase catalytic subunit alpha isoform (Homo sapiens), P42336 [I800L]; details: Compound concentration 1000.0 nM
[31] = biological target: Dual serine/threonine and tyrosine protein kinase (Homo sapiens) (UniProt Q6XUX3); details: Compound concentration 1000.0 nM
[32] = biological target: Ribosomal protein S6 kinase alpha-6 (Homo sapiens) (UniProt Q9UK32); details: Compound concentration 1000.0 nM
[33] = biological target: Rhodopsin kinase GRK7 (Homo sapiens) (UniProt Q8WTQ7); details: Compound concentration 1000.0 nM
[34] = biological target: Serine/threonine-protein kinase D3 (Homo sapiens) (UniProt O94806); details: Compound concentration 1000.0 nM
[35] = biological target: Cyclin-dependent kinase 14 (Homo sapiens) (UniProt O94921); details: Compound concentration 1000.0 nM
[36] = test system: Tyrosine-protein kinase ABL1 (Homo sapiens), P00519 [F317I]; details: Compound concentration 1000.0 nM
[37] = biological target: Serine/threonine-protein kinase pim-2 (Homo sapiens) (UniProt Q9P1W9); details: Compound concentration 1000.0 nM
[38] = biological target: Mitogen-activated protein kinase kinase kinase 1 (Homo sapiens) (UniProt Q13233); details: Compound concentration 1000.0 nM
[39] = biological target: Ephrin type-B receptor 3 (Homo sapiens) (UniProt P54753); details: Compound concentration 1000.0 nM
[40] = biological target: Ribosomal protein S6 kinase alpha-1 (Homo sapiens) (UniProt Q15418); details: Compound concentration 1000.0 nM
[41] = biological target: Serine/threonine-protein kinase mTOR (Homo sapiens) (UniProt P42345); details: Compound concentration 1000.0 nM
[42] = biological target: Epidermal growth factor receptor (Homo sapiens) (UniProt P00533); details: Compound concentration 1000.0 nM
[43] = biological target: Tyrosine-protein kinase FRK (Homo sapiens) (UniProt P42685); details: Compound concentration 1000.0 nM
[44] = biological target: Mitogen-activated protein kinase kinase kinase 15 (Homo sapiens) (UniProt Q6ZN16); details: Compound concentration 1000.0 nM

Tyrosine-protein kinase ABL1 (Homo sapiens), sequence (P00519 whole entry): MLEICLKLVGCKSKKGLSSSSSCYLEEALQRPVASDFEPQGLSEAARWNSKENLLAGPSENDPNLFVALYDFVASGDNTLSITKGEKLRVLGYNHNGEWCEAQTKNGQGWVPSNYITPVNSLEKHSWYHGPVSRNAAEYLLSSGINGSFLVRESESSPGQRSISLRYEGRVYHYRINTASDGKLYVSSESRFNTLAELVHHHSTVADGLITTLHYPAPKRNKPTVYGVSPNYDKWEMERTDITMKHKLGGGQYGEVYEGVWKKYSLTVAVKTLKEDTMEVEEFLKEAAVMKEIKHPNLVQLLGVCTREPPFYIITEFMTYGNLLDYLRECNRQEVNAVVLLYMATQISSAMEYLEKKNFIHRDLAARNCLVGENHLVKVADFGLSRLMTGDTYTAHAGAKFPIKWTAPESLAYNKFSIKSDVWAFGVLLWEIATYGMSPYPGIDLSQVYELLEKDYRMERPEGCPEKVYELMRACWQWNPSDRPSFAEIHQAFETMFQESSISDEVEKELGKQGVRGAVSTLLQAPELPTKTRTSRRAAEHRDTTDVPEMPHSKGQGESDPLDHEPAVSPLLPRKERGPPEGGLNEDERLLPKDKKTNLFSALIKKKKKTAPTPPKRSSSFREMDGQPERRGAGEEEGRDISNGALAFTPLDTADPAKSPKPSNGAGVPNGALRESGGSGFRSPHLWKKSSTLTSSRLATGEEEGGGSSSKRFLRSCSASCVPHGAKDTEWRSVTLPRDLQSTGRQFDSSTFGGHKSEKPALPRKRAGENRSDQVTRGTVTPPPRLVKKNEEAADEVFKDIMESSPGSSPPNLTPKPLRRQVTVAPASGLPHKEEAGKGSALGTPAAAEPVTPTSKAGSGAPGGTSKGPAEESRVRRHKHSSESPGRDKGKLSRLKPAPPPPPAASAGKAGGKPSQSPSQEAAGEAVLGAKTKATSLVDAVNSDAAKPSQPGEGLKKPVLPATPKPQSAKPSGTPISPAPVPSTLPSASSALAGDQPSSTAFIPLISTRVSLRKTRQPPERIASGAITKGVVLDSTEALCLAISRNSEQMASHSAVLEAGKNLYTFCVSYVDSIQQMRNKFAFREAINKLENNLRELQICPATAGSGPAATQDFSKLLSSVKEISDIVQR
Serine/threonine-protein kinase D3 (Homo sapiens), sequence (O94806 whole entry): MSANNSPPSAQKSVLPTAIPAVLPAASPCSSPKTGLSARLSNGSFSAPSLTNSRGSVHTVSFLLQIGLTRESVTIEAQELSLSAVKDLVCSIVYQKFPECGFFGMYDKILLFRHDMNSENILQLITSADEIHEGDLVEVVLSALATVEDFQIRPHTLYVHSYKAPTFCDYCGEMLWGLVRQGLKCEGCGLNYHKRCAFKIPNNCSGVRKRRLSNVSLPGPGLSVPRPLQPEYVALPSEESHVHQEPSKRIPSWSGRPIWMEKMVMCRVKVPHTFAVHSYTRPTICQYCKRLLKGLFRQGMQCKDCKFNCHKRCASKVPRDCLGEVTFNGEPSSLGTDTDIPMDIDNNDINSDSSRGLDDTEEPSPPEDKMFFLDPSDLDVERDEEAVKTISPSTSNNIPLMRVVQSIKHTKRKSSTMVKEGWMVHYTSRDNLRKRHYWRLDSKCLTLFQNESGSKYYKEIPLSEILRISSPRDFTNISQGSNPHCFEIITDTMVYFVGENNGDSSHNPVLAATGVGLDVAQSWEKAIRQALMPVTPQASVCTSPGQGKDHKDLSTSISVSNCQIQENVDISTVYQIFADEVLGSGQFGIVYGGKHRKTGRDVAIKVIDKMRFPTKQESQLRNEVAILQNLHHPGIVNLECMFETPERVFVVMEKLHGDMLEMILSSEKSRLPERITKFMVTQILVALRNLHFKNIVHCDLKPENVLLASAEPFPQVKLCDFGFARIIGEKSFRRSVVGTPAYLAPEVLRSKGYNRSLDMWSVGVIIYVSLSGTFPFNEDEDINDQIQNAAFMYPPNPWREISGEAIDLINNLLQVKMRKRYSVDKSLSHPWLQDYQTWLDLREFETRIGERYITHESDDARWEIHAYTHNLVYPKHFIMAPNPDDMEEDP
Serine/threonine-protein kinase PAK 3 (Homo sapiens), sequence (O75914 whole entry, looked up): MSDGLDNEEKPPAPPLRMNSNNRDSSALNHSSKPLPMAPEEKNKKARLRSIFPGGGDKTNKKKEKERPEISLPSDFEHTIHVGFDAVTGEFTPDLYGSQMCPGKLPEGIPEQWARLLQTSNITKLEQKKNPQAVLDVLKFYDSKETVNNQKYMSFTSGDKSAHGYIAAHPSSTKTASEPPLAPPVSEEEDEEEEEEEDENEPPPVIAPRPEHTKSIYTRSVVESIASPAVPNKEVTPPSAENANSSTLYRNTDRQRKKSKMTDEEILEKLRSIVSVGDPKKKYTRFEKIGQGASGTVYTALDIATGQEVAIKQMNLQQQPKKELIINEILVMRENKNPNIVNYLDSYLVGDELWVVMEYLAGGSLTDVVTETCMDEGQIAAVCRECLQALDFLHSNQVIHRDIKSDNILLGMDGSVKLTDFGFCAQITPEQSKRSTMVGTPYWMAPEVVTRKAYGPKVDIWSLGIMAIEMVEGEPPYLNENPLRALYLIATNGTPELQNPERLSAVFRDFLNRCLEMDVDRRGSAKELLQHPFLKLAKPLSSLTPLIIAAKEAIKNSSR
Ephrin type-B receptor 6 (Homo sapiens), sequence (O15197 whole entry): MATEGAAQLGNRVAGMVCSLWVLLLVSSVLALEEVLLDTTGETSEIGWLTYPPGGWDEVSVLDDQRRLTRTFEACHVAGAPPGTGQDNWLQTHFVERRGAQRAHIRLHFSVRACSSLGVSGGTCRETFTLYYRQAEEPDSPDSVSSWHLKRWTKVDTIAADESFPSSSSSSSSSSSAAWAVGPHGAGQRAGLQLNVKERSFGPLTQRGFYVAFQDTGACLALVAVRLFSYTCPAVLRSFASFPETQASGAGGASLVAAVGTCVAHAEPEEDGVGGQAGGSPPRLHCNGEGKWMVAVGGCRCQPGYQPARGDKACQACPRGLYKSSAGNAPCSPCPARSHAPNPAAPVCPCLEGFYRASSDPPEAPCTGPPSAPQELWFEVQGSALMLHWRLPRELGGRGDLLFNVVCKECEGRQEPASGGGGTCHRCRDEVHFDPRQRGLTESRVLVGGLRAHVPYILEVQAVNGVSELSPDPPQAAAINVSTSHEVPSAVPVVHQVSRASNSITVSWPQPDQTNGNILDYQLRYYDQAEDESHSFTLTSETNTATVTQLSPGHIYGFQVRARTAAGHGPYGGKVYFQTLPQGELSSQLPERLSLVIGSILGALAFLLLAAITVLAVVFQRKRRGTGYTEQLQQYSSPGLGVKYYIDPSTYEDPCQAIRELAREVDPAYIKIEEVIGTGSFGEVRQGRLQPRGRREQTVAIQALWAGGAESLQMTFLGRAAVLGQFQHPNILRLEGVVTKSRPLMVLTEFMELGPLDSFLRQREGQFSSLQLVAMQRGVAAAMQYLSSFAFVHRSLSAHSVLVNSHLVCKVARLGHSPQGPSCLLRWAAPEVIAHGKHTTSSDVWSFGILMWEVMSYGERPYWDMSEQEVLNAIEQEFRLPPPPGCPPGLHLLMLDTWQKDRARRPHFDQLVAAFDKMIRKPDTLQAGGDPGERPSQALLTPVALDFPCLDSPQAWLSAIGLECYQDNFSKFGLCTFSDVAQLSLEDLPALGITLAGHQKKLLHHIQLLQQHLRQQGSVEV
SRSF protein kinase 3 (Homo sapiens), sequence (Q9UPE1 whole entry): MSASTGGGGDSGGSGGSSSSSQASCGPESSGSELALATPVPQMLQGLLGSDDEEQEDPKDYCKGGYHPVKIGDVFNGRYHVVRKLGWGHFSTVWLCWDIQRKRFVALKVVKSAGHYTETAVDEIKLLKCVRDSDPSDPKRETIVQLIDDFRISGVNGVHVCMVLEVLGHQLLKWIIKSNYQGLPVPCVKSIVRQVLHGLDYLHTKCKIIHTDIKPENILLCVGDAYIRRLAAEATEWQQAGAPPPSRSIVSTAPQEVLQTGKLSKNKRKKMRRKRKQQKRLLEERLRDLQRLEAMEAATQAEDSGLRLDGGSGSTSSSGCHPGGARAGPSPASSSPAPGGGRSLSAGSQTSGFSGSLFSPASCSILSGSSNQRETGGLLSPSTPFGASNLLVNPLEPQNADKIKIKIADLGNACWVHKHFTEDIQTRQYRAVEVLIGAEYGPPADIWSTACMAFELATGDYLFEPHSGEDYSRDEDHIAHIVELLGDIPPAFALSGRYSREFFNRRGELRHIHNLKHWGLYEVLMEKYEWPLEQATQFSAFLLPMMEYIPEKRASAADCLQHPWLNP
Mitogen-activated protein kinase 15 (Homo sapiens), sequence (Q8TD08 whole entry): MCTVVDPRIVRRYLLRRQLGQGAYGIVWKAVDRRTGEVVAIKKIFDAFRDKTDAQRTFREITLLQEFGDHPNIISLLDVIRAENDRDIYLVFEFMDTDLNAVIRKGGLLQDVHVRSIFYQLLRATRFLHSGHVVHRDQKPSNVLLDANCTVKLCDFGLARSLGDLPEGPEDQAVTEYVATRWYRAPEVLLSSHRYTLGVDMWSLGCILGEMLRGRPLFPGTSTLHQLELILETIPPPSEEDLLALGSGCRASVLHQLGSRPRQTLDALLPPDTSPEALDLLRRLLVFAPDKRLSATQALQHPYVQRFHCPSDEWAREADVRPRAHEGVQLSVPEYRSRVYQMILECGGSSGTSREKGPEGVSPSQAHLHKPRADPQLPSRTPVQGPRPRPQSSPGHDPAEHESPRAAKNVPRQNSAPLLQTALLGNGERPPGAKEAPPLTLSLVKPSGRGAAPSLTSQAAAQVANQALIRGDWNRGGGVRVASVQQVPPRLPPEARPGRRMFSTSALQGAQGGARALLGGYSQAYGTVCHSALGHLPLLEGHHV
Serine/threonine-protein kinase pim-2 (Homo sapiens), sequence (Q9P1W9 whole entry, looked up): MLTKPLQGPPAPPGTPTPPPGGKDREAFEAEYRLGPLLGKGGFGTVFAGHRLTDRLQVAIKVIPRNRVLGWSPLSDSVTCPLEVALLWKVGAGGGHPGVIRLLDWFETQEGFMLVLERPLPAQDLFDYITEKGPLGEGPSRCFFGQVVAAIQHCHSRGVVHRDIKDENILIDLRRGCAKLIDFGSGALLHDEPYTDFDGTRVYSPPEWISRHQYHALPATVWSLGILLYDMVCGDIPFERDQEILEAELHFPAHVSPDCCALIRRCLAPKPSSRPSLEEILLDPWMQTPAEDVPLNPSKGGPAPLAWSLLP
Tyrosine-protein kinase ABL1 (Homo sapiens), P00519 [F317I], sequence (P00519 whole entry F317I): as the sequence (P00519 whole entry) above, with F317I counted along it

NS(=O)(=O)c1cc(NC(=O)Cc2ccccc2)ccc1Oc1cccc(Cl)c1 [BAY-1797]
inactive: residual activity [1] 100% | residual activity [2] 79% | residual activity [3] 62% | residual activity [4] 93% | residual activity [5] 79% | residual activity [6] 68% | residual activity [7] 78% | residual activity [8] 83% | residual activity [9] 88% | residual activity [10] 93% | residual activity [11] 93% | residual activity [12] 85% | residual activity [13] 75% | residual activity [14] 100% | residual activity [15] 87% | residual activity [16] 79% | residual activity [17] 90% | residual activity [18] 89% | residual activity [19] 92% | residual activity [20] 84% | residual activity [21] 100% | residual activity [22] 100% | inhibition [23] 0.73% | residual activity [24] 97% | residual activity [25] 89% | residual activity [26] 83% | residual activity [27] 83% | inhibition [28] 21.6% | residual activity [29] 100% | residual activity [30] 82% | residual activity [31] 83% | residual activity [32] 84% | residual activity [33] 77% | residual activity [34] 100% | residual activity [35] 95% | residual activity [36] 51% | residual activity [37] 100% | residual activity [38] 66% | residual activity [39] 94% | residual activity [40] 75% | residual activity [41] 92% | residual activity [42] 84% | residual activity [43] 98% | residual activity [44] 100%

NS(=O)(=O)c1cc(NC(=O)C2(c3ccccc3Cl)CC2)ccc1Oc1cccc(Cl)c1 [BAY-207]
inactive: residual activity [1] 80% | residual activity [2] 67% | residual activity [3] 85% | residual activity [4] 100% | residual activity [5] 82% | residual activity [6] 65% | residual activity [7] 64% | residual activity [8] 100% | residual activity [9] 100% | residual activity [10] 94% | residual activity [11] 98% | residual activity [12] 64% | residual activity [13] 88% | residual activity [14] 76% | residual activity [15] 64% | residual activity [16] 99% | residual activity [17] 83% | residual activity [18] 62% | residual activity [19] 81% | residual activity [20] 100% | residual activity [21] 90% | residual activity [22] 68% | inhibition [23] 3.19% | residual activity [24] 100% | residual activity [25] 90% | residual activity [26] 84% | residual activity [27] 85% | inhibition [28] 3.57% | residual activity [29] 100% | residual activity [30] 100% | residual activity [31] 93% | residual activity [32] 100% | residual activity [33] 100% | residual activity [34] 85% | residual activity [35] 63% | residual activity [36] 96% | residual activity [37] 76% | residual activity [38] 100% | residual activity [39] 62% | residual activity [40] 100% | residual activity [41] 100% | residual activity [42] 75% | residual activity [43] 99% | residual activity [44] 86%
